Holding throughout (type): in vitro ADME
Data set [1] deals with CYP2D6 (Homo sapiens (Human), UniProt P10635). Description: Inhibition of CYP2D6 enzymatic activity in human liver microsomes. Particulars: human liver microsome, substrate dextromethorphan, 20 min. On the procedure:
(§1) The inhibition of CYP2C9 and CYP2D6 activity by the compound of the present invention was determined using the following method.
(§2) • 1. Human liver microsome (Corning 452117) • 2. NADPH (Solarbio 705Y021) • 3. Positive substrates diclofenac (Sigma SLBV3438) and dextromethorphan (TRC 3-EDO-175-1) • 4. Positive inhibitors sulfaphenazole (D. Ehrenstorfer GmbH 109012) and quinidine (TCI WEODL-RE) • 5. AB Sciex Triple Quad 5500 liquid chromatography-mass spectrometry system
(§3) • 1. Preparation of 100 mM phosphate-buffered saline (PBS): 7.098 g Na2HPO4 was weighed. 500 mL pure water was added. The mixture was dissolved by sonication to give solution A. 3.400 g KH2PO4 was weighed. 250 mL pure water was added. The mixture was dissolved by sonication to give solution B. The solution A was placed in a stirrer, and the solution B was slowly added until the pH reached 7.4, so that the 100 mM PBS buffer was prepared. • 2. A 10 mM NADPH solution was prepared with a 100 mM PBS buffer. A 10 mM stock solution of the compound of the present invention was diluted with DMSO to give a compound working solution at a concentration of 200×(6000, 2000, 600, 200, 60, 20, and 0 μM). […]
(§4) The reduction of metabolite production in the treatment groups versus the control group was compared by the peak area ratios of the sample to the internal standard, and the IC50 value was calculated using Excel XLfit 5.3.1.3.

Data set [2] concerns the target CYP2C9 (Homo sapiens (Human), UniProt P11712). Description: Inhibition of CYP2C9 enzymatic activity in human liver microsomes. The conditions noted are these: human liver microsome, substrate diclofenac, 5 min. On the procedure: as §1, §2, §3, §4
For orientation: Liver microsomes are a subcellular fraction often used to study metabolism.

Data set [3] is described as follows: Metabolic stability in human liver microsomes. The conditions noted are these: pH 7.4, 1 μM compound, 0.5 mg/mL microsome, NADPH 1 mM, 37° C., read-out: Human liver microsome stability t1/2. An excerpt: • 1. Human liver microsome (Corning 452117), beagle dog liver microsome (XENOTECH D1000), SD rat liver microsome (XENOTECH R1000), and CD-1 mouse liver microsome (XENOTECH M1000) • 2. Na2HPO4 (Tianjin Guangfu Fine Chemical Research Institute 20180130) • 3. KH2PO4 (Tianjin Guangfu Fine Chemical Research Institute 20180920) • 4. MgCl2 (Tianjin Guangfu Fine Chemical Research Institute 20191216) • 5. NADPH (Solarbio 1216C022) • 6. Positive control compound verapamil (Sigma MKBV4993V) • 7. AB Sciex API4000 liquid chromatography-mass spectrometry system
• 1. Preparation of 100 mM phosphate-buffered saline (PBS): 7.098 g Na2HPO4 was weighed. 500 mL pure water was added. The mixture was dissolved by sonication to give solution A. 3.400 g KH2PO4 was weighed. 250 mL pure water was added. […]
All data were calculated by Microsoft Excel software. The peak area was detected through an extracted ion chromatogram. The in vitro half-life (t1/2) of the compound was determined by linear fitting of the natural logarithm of compound elimination percentage over time.
In vitro half-life (t1/2) was calculated by the slope k: […]
The in vitro intrinsic clearance (in μL/min/mg protein) was calculated using the following formula: […]

Chain of CYP2C9 (P11712 whole entry): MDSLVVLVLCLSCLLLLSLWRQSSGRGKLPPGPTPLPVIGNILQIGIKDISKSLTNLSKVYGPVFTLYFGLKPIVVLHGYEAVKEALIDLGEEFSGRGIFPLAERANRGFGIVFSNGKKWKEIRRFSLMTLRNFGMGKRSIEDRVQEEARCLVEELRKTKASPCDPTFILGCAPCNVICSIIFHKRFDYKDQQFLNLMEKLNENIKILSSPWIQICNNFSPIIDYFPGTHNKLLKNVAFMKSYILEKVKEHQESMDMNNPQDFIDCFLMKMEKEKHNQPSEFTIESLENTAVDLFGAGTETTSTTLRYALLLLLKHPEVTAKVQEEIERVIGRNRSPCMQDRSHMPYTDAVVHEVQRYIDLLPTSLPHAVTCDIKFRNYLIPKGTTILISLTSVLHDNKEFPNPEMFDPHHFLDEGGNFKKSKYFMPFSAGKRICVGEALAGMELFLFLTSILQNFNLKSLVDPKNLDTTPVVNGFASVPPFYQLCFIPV
Chain of CYP2D6 (P10635 whole entry): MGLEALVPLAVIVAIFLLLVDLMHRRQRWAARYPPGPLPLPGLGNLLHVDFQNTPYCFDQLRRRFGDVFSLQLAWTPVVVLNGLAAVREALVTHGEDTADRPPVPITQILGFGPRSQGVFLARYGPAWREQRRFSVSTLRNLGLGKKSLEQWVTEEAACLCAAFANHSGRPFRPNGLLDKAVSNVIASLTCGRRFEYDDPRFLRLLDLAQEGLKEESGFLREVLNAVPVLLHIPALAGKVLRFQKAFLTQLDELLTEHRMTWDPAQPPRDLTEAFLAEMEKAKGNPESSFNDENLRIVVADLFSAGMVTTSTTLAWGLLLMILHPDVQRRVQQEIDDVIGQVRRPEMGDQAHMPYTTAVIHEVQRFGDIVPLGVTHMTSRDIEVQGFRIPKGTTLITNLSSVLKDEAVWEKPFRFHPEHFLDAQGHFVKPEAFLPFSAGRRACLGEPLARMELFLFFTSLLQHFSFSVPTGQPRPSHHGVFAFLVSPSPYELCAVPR

On to `C[C@]12C=CC(=O)C=C1CC[C@@H]1[C@@H]2[C@@H](O)C[C@@]2(C)[C@H]1C[C@H]1O[C@@H](c3ccc(Cc4cc(N)c5c(c4)CCO5)cc3)O[C@]12C(=O)CO` [Compound 009, (6aR,6bS,7S,8aS,8bS,10R,11aR,12aS,12bS)-10-(4-((7-amino-2,3-dihydrobenzofuran-5-yl)methyl)phenyl)-7-hydroxy-8b-(2-hydroxyacetyl)-6a,8a-dimethyl-6a,6b,7,8,8a,8b,11a,12,12a,12b-decahydro-1H-naphtho[2′,1′:4,5]indeno[1,2-d][1,3]dioxolan-4(2H)-one], for which the IC50 in data set [1] was more than 50 µM; in data set [2] it was 7.2 µM. In addition, the half-life at 1 μM in data set [3] amounted to 37.8 min.

By IC50 is commonly meant the midpoint of a concentration-inhibition curve. Low readings indicate greater potency, high ones weaker potency.

(Values after patent US20240307415A1, “STEROID COMPOUND, AND PHARMACEUTICAL COMPOSITION THEREOF AND USE THEREOF” (JIANGSU SIMCERE PHARMACEUTICAL CO., LTD., priority 2021, published 2024).)
